Experimental data from patent US20040116531A1, “Water-free skin care formulations comprising micronized urea and method of manufacturing the same” (priority 2000, published 2004).

System: human healthy skin
Conditions: in vivo
Method: The study was designed as a single center, randomized, double-blind (investigator-masked) study with intraindividual comparison of treatments to evaluate the cutaneous tolerance of repeated applications of the medical skin care formulations applied under occlusion during 21 days and started with 25 healthy volunteers of either sex between 18 and 65 years old meeting specific inclusion/exclusion criteria.
The volunteers were subjected to an occlusive application of 50 μl of each test formulation on designated test fields on their mid back for 21 consecutive days. The occlusive dressings were removed after 23 hours, and the irritation was evaluated one hour later using a 6-point-score (irritation score):
A Cumulative Irritancy Index (C.I.I.) was calculated for each test preparation for each subject as follows:
C.I.I.=Sum of irritation scores in one individual/number of readings An ‘adjusted C.I.I.’ (C.I.I.*) was calculated by subtracting scores caused by sensitization reactions.
Furthermore, a Mean Cumulative Irritation Index (M.C.I.I.) was calculated for each product by averaging individual C.I.I.s across subjects as follows:
M.C.I.I.=Sum of irritation scores in all individuals/number of readings An ‘adjusted M.C.I.I.’ (M.C.I.I.*) was calculated by subtracting scores caused by sensitization reactions.

white soft paraffin was tested. Which “mean scores during the course of the study” value did it give?
The value was “no remarkable differences or tendencies”.
